Measurements reported in patent US20250049787A1, “TREATMENT FOR ACUTE MYELOID LEUKEMIA OR LYMPHOMA” (UNIVERSITY HEALTH NETWORK, priority 2021, published 2025).
Counter-ions that a name gives are not always drawn.

Columns and labels:
Assay in all cases: Growth inhibition, Alamar Blue
Assay type in all cases: cell-based
NALM-6 = details: Homo sapiens, 72 h; NALM-6, B-ALL; 3 days
Method: (§1) Cell lines were obtained from American Type Culture Collection (ATCC) and maintained according to the supplier's instructions, and from Dr. Mark Minden (Princess Margaret Cancer Centre, Toronto, Canada). Short tandem repeat (STR) profiling was used to verify authenticity of the cell lines. Peripheral blood from healthy human donors was obtained from the Hematology Malignancy Tissue Bank at the University Health Network. Peripheral blood mononuclear cells (PBMC) were prepared from the blood by density gradient centrifugation using Ficoll-Paque PLUS by manufacturer's instructions (GE Healthcare Life Sciences). […] Compound (I) tartrate was prepared as a 10 mM stock solution in 100% DMSO. The stock solution was diluted with RPMI-1640 (Invitrogen) containing 10% FBS (fetal bovine serum) such that the final concentrations ranged from 300 fM to 300 μM. Aliquots (20 μL) from each concentration were overlaid to 180 μL of pre-seeded cells to achieve final concentrations of 30 fM to 30 μM. After 3 days, cell growth in each well was assessed by Alamar Blue assay reagent (Invitrogen). Raw fluorescence (λEM=590 nm) values were adjusted by subtracting the average of the baseline readings from untreated cells assessed one day after cell seeding. Relative cell growth was calculated by comparing to DMSO-treated cells. The concentrations at which cell growth was inhibited by 50% (growth inhibition IC50) were calculated using GraphPad PRISM software (GraphPad Software Inc.).

OCI-LY10 = details: Homo sapiens, 72 h; OCI-LY10, NHL, ABC-DLBCL; 3 days
Method: as §1

RAJI = details: Homo sapiens, 72 h, NHL, Burkitt's lymphoma, 3 days
Method: as §1

OCI-AML3 = details: Homo sapiens, OCI-AML-3, 72 h; OCI-AML3, AML M4; 3 days
Method: as §1

DAUDI = details: Homo sapiens, 72 h, NHL, Burkitt's lymphoma, 3 days
Method: as §1

OCI-LY8 = details: Homo sapiens, 72 h; OCI-LY8, NHL, GCB-DLBCL; 3 days
Method: as §1

KOPN-8 = details: Homo sapiens, 72 h; KOPN-8, B-ALL; 3 days
Method: as §1

OCI-LY18 = details: Homo sapiens, 72 h; OCI-LY18, NHL, GCB-DLBCL; 3 days
Method: as §1

PBMC = details: 72 h, NORMAL (healthy human donors), 3 days
Method: as §1

SU-DHL-8 = details: Homo sapiens, 72 h; SU-DHL-8, NHL, GCB-DLBCL; 3 days
Method: as §1

THP-1 = details: Homo sapiens, 72 h; THP-1, AML M5; FLT3 wild-type, protein expressed; 3 days
Method: as §1

MOLM-13 = details: Homo sapiens, 72 h; MOLM-13, AML M5; FLT3 ITD + wild-type, protein not expressed; 3 days
Method: as §1

U937 = details: Homo sapiens, U-937, 72 h; U937, AML M5; 3 days
Method: as §1

OCI-LY3 = details: Homo sapiens, 72 h; OCI-LY3, NHL, ABC-DLBCL; 3 days
Method: as §1

OCI-AML5 = details: Homo sapiens, OCI-AML-5, 72 h; OCI-AML5, AML M4; 3 days
Method: as §1

MOLM-14 = details: Homo sapiens, 72 h; MOLM-14, AML M5; FLT3 ITD + wild-type, protein expressed; 3 days
Method: as §1

REH = details: Homo sapiens, 72 h, B-ALL, 3 days
Method: as §1

K562 = details: Homo sapiens, 72 h; K562, CML; 3 days
Method: as §1

HL-60 = details: Homo sapiens, 72 h; HL-60, AML M2; FLT3 wild-type, protein expressed; 3 days
Method: as §1

JURKAT = details: Homo sapiens, 72 h, T-ALL, 3 days
Method: as §1

OCI-AML2 = details: Homo sapiens, 72 h; OCI-AML2, AML M4; 3 days
Method: as §1

MV-4-11 = details: Homo sapiens, MV4-11, 72 h; MV-4-11, AML M5; FLT3 ITD, protein expressed; 3 days
Method: as §1

OCI-AML4 = details: Homo sapiens, 72 h; OCI-AML4, AML M4; 3 days
Method: as §1

NB4 = details: Homo sapiens, NB-4, 72 h; NB4, AML M3; 3 days
Method: as §1

RS4; 11 = details: Homo sapiens, 72 h, 11, B-ALL, 3 days
Method: as §1

MOLT-4 = details: Homo sapiens, 72 h; MOLT-4, T-ALL; 3 days
Method: as §1

Compound: CN1CCN(c2ccc3nc(-c4c(N)c5ccsc5[nH]c4=O)[nH]c3c2)CC1 [Compound (I) tartrate, 4-amino-5-(6-(4-methylpiperazin-1-yl)-1H-benzo[d]imidazol-2-yl)thieno[2,3-b]pyridin-6(7H)-one]
- IC50 (NALM-6): 10 µM
- IC50 (OCI-LY10): 0.57 µM
- IC50 (RAJI): 6.6 µM
- IC50 (OCI-AML3): ≥ 30 µM
- IC50 (DAUDI): 1.3 µM
- IC50 (OCI-LY8): 3.6 µM
- IC50 (KOPN-8): 3.3 µM
- IC50 (OCI-LY18): 0.09 µM
- IC50 (PBMC): 14 µM
- IC50 (SU-DHL-8): 2.6 µM
- IC50 (THP-1): 1.3 µM
- IC50 (MOLM-13): 1.9 µM
- IC50 (U937): 0.77 µM
- IC50 (OCI-LY3): 0.24 µM
- IC50 (OCI-AML5): 0.27 µM
- IC50 (MOLM-14): 0.0047 µM
- IC50 (REH): 1.4 µM
- IC50 (K562): 6 µM
- IC50 (HL-60): 1.2 µM
- IC50 (JURKAT): 3.4 µM
- IC50 (OCI-AML2): 1.5 µM
- IC50 (MV-4-11): 0.0037 µM
- IC50 (OCI-AML4): 0.16 µM
- IC50 (NB4): 0.94 µM
- IC50 (RS4; 11): 1.7 µM
- IC50 (MOLT-4): 1.6 µM
